From PubChem BioAssay AID743395 (Broad Institute, 2014)

System: HepG2 viability, CellTiter-Glo ATP luminescence, 72 h
Assay: HepG2 cell cytotoxicity, dose response, cytotoxicity control, CellTiter-Glo luminescence, cherry-pick, set 2 (AID 743395)

Structure (SMILES) | AC35 [µM]
CCC(=O)N1CC2(CCN(Cc3ccc(Cl)cc3)CC2)c2c([nH]c3cc(OC)ccc23)[C@H]1CO | 9.3
Cc1ccc2cc(CN(CC3CCCO3)C(=S)Nc3ccccc3)c(=O)[nH]c2c1C (stereo not drawn) | 14.7
CCCCNC(=O)C(=O)Nc1ccc2c(c1)N(S(=O)(=O)c1cccs1)CCC2 | 12.7
COC(C(=O)C(O)C(C)O)C1Cc2cc3cc(OC4CC(OC5CC(O)C(O)C(C)O5)C(O)C(C)O4)c(C)c(O)c3c(O)c2C(=O)C1OC1CC(OC2CC(OC3CC(O)C(OC)C(C)O3)C(O)C(C)O2)C(O)C(C)O1 (stereo not drawn) | 0.148
CC(=O)NC(c1ccc2ccccc2c1)c1ccc2cccnc2c1O (stereo not drawn) | 0.641
CC(C)n1cc(/C=C/c2cc[n+](C)cc2)c2ccccc21 | 11.2
CCCC(=O)NC(c1ccc(C(C)C)cc1)c1ccc2cccnc2c1O (stereo not drawn) | 0.948
CCC(=O)N1CC2(CCN(Cc3ccc(Cl)cc3)CC2)c2c(n(C)c3cc(OC)ccc23)[C@H]1CO | 9.27
N#Cc1ccc(-c2cccs2)nc1SCc1cccnc1 | 0.671
COc1ccc(OC)c(-c2cc(-c3cccnc3)nc(N)c2C#N)c1 | 10.6
Cc1occc1C(=O)N/N=C/c1c(O)ccc2ccccc12 | 6.44
COc1ccc(C2CC(c3cccc(Br)c3)=NN2c2ccc(S(N)(=O)=O)cc2)cc1 (stereo not drawn) | 18.1
CC1=Nc2cc(C(=O)NCC3CCCO3)ccc2Sc2ccc(C)cc21 (stereo not drawn) | 13.5
COc1cccc(N=Nc2ccc3cccnc3c2O)c1 | 4.42
CCOC(=O)c1c(NC(=O)C(=O)N/N=C/c2ccccc2O)sc2c1CCCCC2 | 13.7
CNc1ccc2c3c(cccc13)C(=O)N(C)C2=O | 15.7
O=C1/C(=C\c2cc(Cl)c(O)c(Cl)c2)SC(=S)N1Cc1ccccc1 | 15.4
COc1ccc(S(=O)(=O)Nc2cc3c(cc2C(C)=O)OCO3)cc1 | 12.9
Cc1cc(N/N=C/c2ccccc2O)c2ccccc2n1 | 19.7
C[C@H]1CN([C@@H](C)CO)S(=O)(=O)c2ccc(-c3ccc(C#N)cc3)cc2O[C@@H]1CN(C)Cc1ccccn1 | 5.26
CCN1/C(=C/c2ccc3cc(C)cc(C)c3[n+]2CC)Sc2cc(C)ccc21 | 0.908
COc1ccc(OC)c(Nc2cc(C)nc3ccc(C)cc23)c1 | 2.93
Nc1ccn(C2OC(CO)C(O)C2O)c(=O)n1 (stereo not drawn) | 6.2
NS(=O)(=O)c1ccc(CCNc2nn3c(-c4cccc(OC(F)(F)F)c4)cnc3s2)cc1 | 16.7
Cc1ccc(-c2ccc3c(c2)O[C@@H](CN(C)Cc2ccccn2)[C@H](C)CN([C@H](C)CO)S3(=O)=O)cc1 | 15.3

Structure (SMILES) | AC35 [µM]
CCOC(=O)c1cc2c(=Cc3ccc(N(C)C)cc3)c3ccccc3n2[n+]1C | 16.6
Cc1cc(/C=N/n2c(COc3ccccc3C)nc3ccccc3c2=O)c(O)c([N+](=O)[O-])c1 | 8.05
COc1cccc(-c2ccc(C3[C@@H]4CN(S(=O)(=O)c5cccc(OC)c5)C[C@H]3N4)cc2)c1 (stereo partly drawn) | 8.91
COc1ccc(-c2cc(C(F)F)n3ncc(C(=O)N4CCc5ccccc54)c3n2)cc1 | 9.81
OC[C@@H]1CN(Cc2ccc(-c3ccccc3)cc2)C[C@H](n2cnc3c(NC4CC4)ncnc32)O1 | 19.3
CC1(C(=O)NCc2cccs2)Cc2c(-c3ccc4c(c3)OCO4)ccnc2O1 (stereo not drawn) | 16.4
CN(C)CCNc1ccc2ncn3c4ccc(O)cc4c(=O)c1c23 | 2.3
COc1ccccc1N1CCN(C(=O)c2ccc(-c3ccc(Cl)cc3)o2)CC1 | 3.02
Cc1ncc(CO)c(/C=N/Nc2ccc(C(F)(F)F)cn2)c1O | 4.63
COc1ccc(NC(=O)Nc2ccc3c(c2)C(=O)N([C@H](C)CO)C[C@@H](C)[C@H](CN(C)Cc2ccc(C(F)(F)F)cc2)OCCCC[C@H](C)O3)cc1 | 13.9
CN(C)CCNC(=O)c1ccc(Cl)c2cc3ccccc3nc12 | 2.59
COc1cc(OC)cc(C(=O)N[C@H](C(=O)Nc2nc3ccccc3[nH]2)C(C)C)c1 | 10.2
CN(C)CCCNc1c2ccccc2nc2ccccc12 | 0.794
COc1cccc2c1C(=O)c1c(O)c3c(c(O)c1C2=O)C[C@](O)(C(C)=O)C[C@H]3O[C@@H]1C[C@@H](N)[C@@H](O)[C@@H](C)O1 | 0.0738
COc1ccc(Nc2nc(-c3sc(C)nc3C)cs2)c(OC)c1 | 10
O=C(Nc1cccc(C2=NCCN2)c1)Nc1cccc(C2=NCCN2)c1 | 5.69
N#CC1=C(N)Oc2c(ccc3cccnc23)C1c1ccccc1 (stereo not drawn) | 6.64
O=C1c2ccccc2C(=O)c2c1cccc2N(CCO)CCO | 16.7
CC(=O)Oc1c(C)cc(Cl)cc1C(=O)Nc1ccc([N+](=O)[O-])cc1Cl | 0.712
O=C(Cc1ccccc1)N1CC(=O)N2[C@H](C1)[C@@H](c1ccc(C#Cc3ccccc3)cc1)[C@@H]2CO | 20.3
Cc1ccc(S(=O)(=O)NCCCNS(=O)(=O)c2ccc(C)cc2)cc1 | 20
CC1OC(OC2CC(O)C3(CO)C4C(O)CC5(C)C(C6=CC(=O)OC6)CCC5(O)C4CCC3(O)C2)C(O)C(O)C1O (stereo not drawn) | 0.201
C[C@@H]1CN([C@H](C)CO)S(=O)(=O)c2ccc(-c3ccccc3)cc2O[C@H]1CN(C)Cc1ccccn1 | 16.7
CC(=NNC(=O)c1ccncc1)c1ccc2ccccc2c1O | 2.59
O=[N+]([O-])c1ccc(N=Nc2c(Cl)cc(O)cc2Cl)cc1 | 4.24

Structure (SMILES) | AC35 [µM]
COc1cc(OC)c(-c2c3cc(O)c(=O)cc-3oc3cc(O)c(O)cc23)cc1OC | 13.2
COC(=O)CSC1=C(C#N)C(c2ccc(C)o2)CC(=O)N1 (stereo not drawn) | 19.1
Cc1cc2[nH]c3c(c[n+](C)c4ccccc34)c2cc1C | 2.58
C=CCCC(=O)Nc1nc(C)c(-c2csc(Nc3cc(OC)ccc3OC)n2)s1 | 5.68
CC1(C)CCN2CCC(C)(C)c3c(O)ccc1c32 | 6.54
COC(=O)c1ccc(/C=C/c2c(-c3ccc(OC)cc3)oc3ccc(N4CCOCC4)cc23)cc1 | 16
COc1ccccc1N=C1SC(C(=O)Nc2cccc(Cl)c2Cl)C(N)=C1C(N)=O (stereo not drawn) | 18.4
O=C(N/N=C/c1c(O)ccc2ccccc12)c1ccc(CO)nc1 | 5.89
O=C(Nc1cccc(F)c1)N1CCCCN2[C@@H](CO)[C@H](c3ccc(C#CC4CC4)cc3)[C@@H]2C1 | 10.1
COc1cc(C(=O)N/N=C(\c2ccccc2)c2ccccn2)cc(OC)c1OC | 1.46
COc1cc(/C=C2/SC(=S)N(Cc3ccccc3)C2=O)cc(Cl)c1O | 12.5
COc1cccc(-c2cnc3c(NC(C)=O)cc(-c4cc(F)ccc4OC)cn23)c1 | 12.5
Cc1ccc(C2NC(=O)c3ccccc3N2)c(C)c1 (stereo not drawn) | 13.8
Nc1[nH]c(C(=O)c2ccccc2)c(-c2ccccc2C(F)(F)F)c1C(=O)NCCc1c[nH]c2ccccc12 | 22.4
CCN(CC)c1ccc(/C=N/NC(=O)c2cnccn2)cc1 | 6.68
CC(=O)Nc1cccc(-c2ccnc3c2CC(C)(C(=O)NCc2cccs2)O3)c1 (stereo not drawn) | 2.49
O=c1cc(-c2ccc(O)c(O)c2)oc2cc(O)cc(O)c12 | 19
CCOc1ccc(C)cc1S(=O)(=O)n1cnc2ccccc21 | 11.7
O=C(N/N=C/c1cc(Br)cc(Cl)c1O)c1ccc2c(c1)OCO2 | 10.6
Cc1cc(Br)cc(/C=N/NC(=O)c2ccc3c(c2)OCO3)c1O | 8
C[C@H](CO)N1C[C@H](C)[C@H](CN(C)C(=O)NC2CCCCC2)Oc2cc(C#Cc3cccc(F)c3)ccc2S1(=O)=O | 10.9
CCCC(=O)Nc1nc2ccc(NC(=O)c3c(F)c(F)c(OC)c(F)c3F)cc2s1 | 7.54
COc1ccc(-c2ccc3oc(-c4ccc(OC)cc4)c(C#CCO)c3c2)cc1 | 3.2
